US20120244553A1, “BIOMARKER OF ALLERGIC DISEASE AND USE OF THE SAME” (UNIVERSITY OF TOYAMA, priority 2007, published 2012)
“Also recorded” adds a separate entry of the source.

B1: granzyme A: serine protease expressed in CD4+ T cells; intradermally injected into mice to induce scratching (protein, listed as Homo sapiens)
chain: MRNSYRFLASSLSVVVSLLLIPEDVCEKIIGGNEVTPHSRPYMVLLSLDRKTICAGALIAKDWVLTAAHCNLNKRSQVILGAHSITREEPTKQIMLVKKEFPYPCYDPATREGDLKLLQLTEKAKINKYVTILHLPKKGDDVKPGTMCQVAGWGRTHNSASWSDTLREVNITIIDRKVCNDRNHYNFNPVIGMNMVCAGSLRGGRDSCNGDSGSPLLCEGVFRGVTSFGLENKCGDPRGPGVYILLSKKHLNWIIMTIKGAV

Tests used:
[1] = system: mosquito salivary gland extract-induced scratching behavior; settings: mouse; cited from earlier work
primary afferent = settings: sensitized mouse; cited from earlier work
mice = settings: animals such as mice; cited from earlier work
[2] = system: granzyme A-induced scratching behavior; assay: Suppression of scratching behavior induced by intradermal injection of granzyme A; format: in vivo, mouse; settings: naltrexone injected 15 minutes before granzyme A
Method: (§1) On the day before the experiment, the hair on the rostral back of each mouse was removed. On the day of the experiment, the mouse was left in an observation cage for 1 hour to familiarize the mouse with the environment. After the familiarization, granzyme A (0.1 to 100 μg/site) or ESGM (10 μg/50 μL) was intradermally injected to the rostral back of the mouse. The mouse was returned to the observation cage (13×9×30 cm) immediately after the administration, and the behavior with no observer present was filmed with an 8-mm video camera. A protease inhibitor in an amount of 0.05 mL per 10 g of body weight of the mouse was injected into the tail vein 30 seconds before the administration of ESGM. Naltrexone in an amount of 0.1 mL per 10 g of body weight of the mouse was intradermally injected 15 minutes before the administration of granzyme A. The behavior after the injection was observed by playing back the video. Scratching behavior was determined by counting the number of times there was scratching of the injection portion and nearly areas with the hind paws. A mouse usually scratches several times for about 1 second, and a series of this behavior was determined as one instance of scratching behavior.

normal mice = assay: Behavior experiment: scratching behavior after intradermal injection of granzyme A; format: in vivo, mouse
Method: as §1

Molecule | Effect on scratching behavior increased by repetitive injections of mosquito salivary gland extract [1] | Effect on enhanced activity of primary afferent after mosquito salivary gland extract injection (primary afferent) | also measured
CN1CCCC(n2nc(Cc3ccc(Cl)cc3)c3ccccc3c2=O)CC1 (centres unmarked) [azelastine] | is suppressed | suppressed | –
NCCc1c[nH]cn1 [histamine] | – | – | Scratching behavior caused by histamine (mice): does not cause scratching behavior
O=C1CC[C@@]2(O)[C@H]3Cc4ccc(O)c5c4[C@@]2(CCN3CC2CC2)[C@H]1O5 [naltrexone] | – | – | Effect on scratching behavior induced by intradermal injection of granzyme A [2]: suppressed
CC(C)(C)c1ccc(C(O)CCCN2CCC(C(O)(c3ccccc3)c3ccccc3)CC2)cc1 (centres unmarked) [terfenadine] | is not suppressed | not suppressed | –
B1 | – | – | Dose giving peak scratching behavior (normal mice; intradermal injection): 10 μg/site; Scratching behavior induced by intradermal injection (normal mice; intradermal injection to rostral back, 0.1 to 100 μg/site): an itching reaction occurred; also recorded: induced; also recorded: induction of scratching behavior
